Measured values as given in patent US6930227B1 (Mitsui Chemicals, Inc., priority 1999, dated 2005).

Columns and labels:
N-methyl transferase [1] = target: T1, N-methyl transferase (Camellia sinensis, UniProt Q9FZN8); experiment: N-methyl transferase measurement with enzyme solution from Escherichia coli expressing the gene (14C-caffeine extraction); type: biochemical; conditions: for production of methylated product from the added substrate: substrate added instead of paraxanthine, same reaction solution
T1 construct: made in house; host or cells: Escherichia coli BL21 (DE3), vector pET23d
T1 sequence (Q9FZN8 14-369 limits assumed): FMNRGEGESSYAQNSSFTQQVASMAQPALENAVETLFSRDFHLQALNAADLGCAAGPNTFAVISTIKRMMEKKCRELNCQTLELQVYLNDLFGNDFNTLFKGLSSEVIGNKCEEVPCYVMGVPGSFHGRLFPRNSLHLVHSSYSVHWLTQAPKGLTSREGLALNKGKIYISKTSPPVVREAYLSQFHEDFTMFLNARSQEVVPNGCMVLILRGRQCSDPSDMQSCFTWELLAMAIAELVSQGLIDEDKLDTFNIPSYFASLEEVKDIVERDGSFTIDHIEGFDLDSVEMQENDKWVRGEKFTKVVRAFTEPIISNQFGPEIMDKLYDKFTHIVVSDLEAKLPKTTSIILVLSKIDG
Experimental: Separately, a fragment obtained by treating the isolated N-methyl transferase gene DNA fragment with NcoI and EcoRI was inserted into a pET23d vector. Then, the above PCR product was inserted into the NcoI site of this pET23d vector to construct an N-methyl transferase expression plasmid. This plasmid was transformed to Escherichia coli BL21 (DE3). After the obtained Escherichia coli was cultured at 37° C. for 2 hours, IPTG was added thereto so as to be 0.3 mM in final concentration, and 3-hour culture was further carried out at 30° C. After culturing had been completed, cells were collected and the cells from 3 ml culture solution were subjected to supersonic treatment for 1 minute with interval in 0.2 ml 10 mM Tris-hydrochloric acid buffer solution (pH 7.5), 0.1 M NaCl, 1 mM EDTA-Na2. Then, centrifugation was carried out at 14,000 rpm for 10 minutes, and the obtained supernatant was employed as an enzyme solution.
The reaction solution for N-methyl transferase measurement was prepared as follows. […] Reaction was carried out at 27° C. for 10 minutes, the obtained ^14C-caffeine was extracted by adding 1 ml chloroform thereto and the radiation activity of a chloroform layer was measured. As a control, xanthosine was added to the reaction solution instead of paraxanthine or paraxanthine was removed.

N-methyl transferase [2] = target: T2, N-methyl transferase (Camellia sinensis, UniProt Q9FZN8); type: biochemical
T2 sequence (Q9FZN8 1-369): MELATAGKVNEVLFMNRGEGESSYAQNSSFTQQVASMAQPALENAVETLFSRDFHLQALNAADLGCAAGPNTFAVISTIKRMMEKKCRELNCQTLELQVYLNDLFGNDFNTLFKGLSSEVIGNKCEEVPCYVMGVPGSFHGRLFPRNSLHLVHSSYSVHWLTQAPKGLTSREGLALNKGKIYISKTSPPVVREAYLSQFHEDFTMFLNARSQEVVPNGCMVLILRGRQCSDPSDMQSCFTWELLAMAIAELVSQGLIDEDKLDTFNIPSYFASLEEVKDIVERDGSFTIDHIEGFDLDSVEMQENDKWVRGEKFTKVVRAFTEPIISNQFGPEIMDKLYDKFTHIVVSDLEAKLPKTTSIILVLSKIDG
Experimental: Inhibitor: SAH (S-adenosyl homocysteine)
The reaction solution for N-methyl transferase measurement was prepared as follows. […] Reaction was carried out at 27° C. for 10 minutes, the obtained ^14C-caffeine was extracted by adding 1 ml chloroform thereto and the radiation activity of a chloroform layer was measured.

[3] = substrate: Cn1c(=O)[nH]c2ncn(C)c2c1=O; experiment: purified protein, by the assay type; conditions: other: substrate of the N-methyl transferase; pH 8.5; 27.0 °C

Cn1cnc2[nH]c(=O)[nH]c(=O)c21 [7-methyl xanthine]
production of methylated product from the added substrate (N-methyl transferase [1]): production of theobromine was observed

Cn1c(=O)[nH]c2ncn(C)c2c1=O [paraxanthine]
caffeine produced (N-methyl transferase [1]; 0.2 mM substrate, 4 μM S-adenosyl methionine, 10 μl enzyme solution, pH 8.5, 27° C., 10 minutes): 1.56 pmol

Nc1ncnc2c1ncn2[C@@H]1O[C@H](CSCC[C@H](N)C(=O)O)[C@@H](O)[C@H]1O [SAH, S-adenosyl homocysteine]
Inhibitor (N-methyl transferase [2]; inhibitor of the N-methyl transferase): Inhibitor

Cn1cnc2c1c(=O)[nH]c(=O)n2C [theobromine]
production of methylated product from the added substrate (N-methyl transferase [1]): production of caffeine was observed

C[S+](CC[C@H](N)C(=O)[O-])C[C@H]1O[C@@H](n2cnc3c(N)ncnc32)[C@H](O)[C@@H]1O (some centres unmarked) [SAM, S-adenosyl methionine]
Km (N-methyl transferase [2]; substrate of the N-methyl transferase): 21 µM

O=c1[nH]c(=O)c2ncn([C@@H]3O[C@H](CO)[C@@H](O)[C@H]3O)c2[nH]1 [xanthosine]
production of methylated product from the added substrate (N-methyl transferase [1]): caffeine was produced only when paraxanthine was added

B1: N-methyl transferase: polypeptide of SEQ ID NO: 1 with 7-methyl xanthine N3, theobromine N1 and paraxanthine N3 methyl transferase activities (protein)
chain: T1 sequence (Q9FZN8 14-369 limits assumed)
Optimum pH (N-methyl transferase [2]): 8.5

B2: N-methyl transferase (Camellia sinensis) (protein)
chain: T2 sequence (Q9FZN8 1-369)
Km [3]: 24 µM
